Tests used:
[1] = UV absorption spectrum in acetonitrile; type: physicochemical; conditions: for Maximum absorption wavelength: absorption in a range of 300 nm to 400 nm; for ε at maximum absorption wavelength (molar extinction coefficient): second line of the cell
Experimental: (§1) Compound Nos. 4, 5, 7, 10, 20, 6, 35, 38 and 40 and Comparative Compound 1 represented by the Formula below were each dissolved in acetonitrile, and their absorption spectra were measured using a […] U-3010 to determine the values of ?max and (molar extinction coefficient) for absorption in a range of 300 nm to 400 nm as well as the value of ε at 365 nm. […] As for the solubility, the concentration of each compound was increased by 1%-by-mass increments and the concentration at which no compound was left undissolved was determined and, in the results shown in Table 4, the solubility is indicated in terms of this concentration.

[2] = Solubility to propylene glycol monomethyl ether acetate at 25° C.; type: physicochemical; conditions: for Solubility: concentration at which no compound was left undissolved; for solubility, ranking among compounds grouped by sulfonate moiety: among Compound Nos. 4, 5, 7 and 10, among Compound Nos. 6, 38 and 40
Experimental: as §1

[3] = Weight loss starting point (thermal analysis); type: physicochemical
[4] = propylene glycol monomethyl ether acetate, 25° C.

Row | Compound | ε at 365 nm [1] | Maximum absorption wavelength [1] | ε at maximum absorption wavelength (molar extinction coefficient) [1] | Solubility [2, 4] | solubility, ranking among compounds grouped by sulfonate moiety [2] | solubility (in words) [2, 4] | solubility, comparison between Compound Nos. 4 and 20 (different Xs) [2, 4] | Weight loss starting point [3] | melting point
1 | CC1(C)C2CCC1(CS(=O)(=O)ON1C(=O)c3cccc4cccc(c34)C1=O)C(=O)C2 (centres unmarked) [Comparative Compound 1, reference compound] | 6.48 × 10^2 | 335 nm | 1.34 × 10^4 | 2 % by mass |  |  |  |  | 
2 | CCCCc1ccc2c3c(cccc13)C(=O)N(OS(=O)(=O)C(F)(F)F)C2=O [Compound No. 4] | 1.16 × 10^4 | 346 nm | 1.65 × 10^4 | 20 % by mass | highest solubility | high solubility | higher solubility | 250 °C | 110 °C
3 | CCCCc1ccc2c3c(cccc13)C(=O)N(OS(=O)(=O)c1ccc(C)cc1)C2=O [Compound No. 6] | 1.02 × 10^4 | 343.5 nm | 1.67 × 10^4 | 2.3 % by mass | highest solubility |  |  | 314.8 °C | 145.1 °C
4 | CCCCc1ccc2c3c(cccc13)C(=O)N(OS(=O)(=O)c1c(C(C)C)cc(C(C)C)cc1C(C)C)C2=O [Compound No. 7] | 1.06 × 10^4 | 344 nm | 1.65 × 10^4 | 5 % by mass |  |  |  | 267 °C | 131 °C
5 | CCCCc1ccc2c3c(cccc13)C(=O)N(OS(=O)(=O)CC13CCC(CC1=O)C3(C)C)C2=O (centres unmarked) [Compound No. 10] | 1.17 × 10^4 | 346 nm | 1.68 × 10^4 | 5 % by mass |  |  |  | 279 °C | 134 °C
6 | CCc1ccc2c3c(cccc13)C(=O)N(OS(=O)(=O)C(F)(F)F)C2=O [Compound No. 20] | 9.95 × 10^3 | 344 nm | 1.64 × 10^4 | 5 % by mass |  |  |  | 253 °C | 145 °C
7 | CCCCc1ccc2c3c(cccc13)C(=O)N(OS(=O)(=O)c1ccc(C(F)(F)F)cc1)C2=O [Compound No. 35] | 1.11 × 10^4 | 345.0 nm | 1.68 × 10^4 | 2.0 % by mass |  |  |  | 302 °C | 192 °C
8 | CCCCC(CC)Cc1ccc2c3c(cccc13)C(=O)N(OS(=O)(=O)c1ccc(C)cc1)C2=O (centres unmarked) [Compound No. 38] | 1.24 × 10^4 | 345 nm | 1.76 × 10^4 | 1.6 % by mass |  |  |  | 304.9 °C | 129.6 °C
9 | CCCCCCCCCCCCCCc1ccc2c3c(cccc13)C(=O)N(OS(=O)(=O)c1ccc(C)cc1)C2=O [Compound No. 40] | 1.05 × 10^4 | 344.5 nm | 1.68 × 10^4 | 1.9 % by mass |  |  |  | 301.8 °C | 95.5 °C

— patent US20150315153A1, “NOVEL SULFONIC ACID DERIVATIVE COMPOUND, PHOTOACID GENERATOR, CATIONIC POLYMERIZATION INITIATOR, RESIST COMPOSITION, AND CATIONICALLY POLYMERIZABLE COMPOSITION” (ADEKA CORPORATION, priority 2012, published 2015)
